This is an account of results in US9085570B2, “Substituted benzamides and their uses” (The Board of Trustees of the Leland Stanford Junior …, priority 2010, dated 2015).

Data set [1] concerns RCC4 with VHL-reintroduced (RCC4/VHL). The data set is described as follows: XTT cell viability assay in RCC4/VHL cells, selectivity ratio versus RCC4. In kind it is cell-based. The note with it: Ratio = IC50RCC4/VHL/IC50RCC4. The method, then:
(§1) Cell Culture. RCC4 parental and RCC4 with VHL-reintroduced (RCC4/VHL), SN12C and SN12C-CSCG-VHL shRNA were maintained in DMEM supplemented with 10% FCS.
(§2) Cell Viability Assays. For 2,3-bis[2-methoxy-4-nitro-5-sulfophenyl]-2H-tetrazolium-5-carboxanilide (XTT) assays, five thousand cells were plated in 96-well plates. The next day, vehicle (DMSO) or drug was added by serial dilution. Four days later, media were aspirated, XTT solution (0.3 mg/ml of XTT (Sigma), […] N-methyl dibenxopyrazine methyl sulfate (Simga) in phenol red-free media) was added, and the plates were incubated at 37° C. for 1-2 hours. Metabolism of XTT was quantified by measuring the absorbance at 450 nm IC50s were calculated using linear interpolation. For clonogenic survival assays, three hundred cells were plated per 60 mm tissue culture dish. The cells were allowed to attach overnight and then treated with vehicle or drug for 14 days. Colonies were fixed and stained with crystal violet (0.1% crystal violet in 95% ethanol). All conditions were measured in triplicate and each experiment was done in duplicate or triplicate. To determine necrosis, cells were treated with drug for a given time point. Media and cells were collected, centrifugated, and resuspended in 0.4% trypan blue (Invitrogen). Live and dead cells were counted on a hematocytometer.
(§3) The designation A reflects an IC50 of <1 nM; B reflects an IC50 ranging from 1 to 20 nM; and C is an IC50 of >20 nM. The designation “a” reflects a ratio of RCC4/RCC-VHL+ranging from 1 to ≦10; “b” reflects from 10 to ≦100; “c” reflects a ratio of >100. Compounds I-29 have an IC50 value of ≦10 μM when tested in the above assay.
On the technique in general: Tetrazolium dyes change colour on reduction, which living cells bring about.

Another data set relates to RCC4. Briefly: XTT cell viability assay in RCC4 cells (VHL-deficient renal carcinoma). The format is cell-based. The note with it: Homo sapiens, 96 h, four days drug exposure. The procedure: as §1, §2, §3

Each structure is given as a SMILES string.

Usually melting point stands for the temperature, or range, at which the solid turns liquid. For orientation: IC50 means the concentration needed to halve the response being measured.

`Cc1ccc(S(=O)(=O)Cc2nc(-c3ccc(C(=O)Nc4cccnc4)cc3)oc2C)cc1` [Example 1, 4-(5-Methyl-4-{[(4-methylphenyl)sulfonyl]methyl}-1,3-oxazol-2-yl)-N-(3-pyridinyl)benzamide] had a melting point of 248 to 250 °C. The compound `Cc1ccc(S(=O)(=O)Cc2nc(-c3ccc(C(=O)Nc4ccncc4)cc3)oc2C)cc1` [Example 2, 4-(5-Methyl-4-{[(4-methylphenyl)sulfonyl]methyl}-1,3-oxazol-2-yl)-N-(4-pyridinyl)benzamide] gave a melting point of 229 to 231 °C. The compound `Cc1ccc(S(=O)(=O)Cc2nc(-c3ccc(C(=O)N(C)c4cccnc4)cc3)oc2C)cc1` [Example 3, N-Methyl-4-(5-methyl-4-{[(4-methylphenyl)sulfonyl]methyl}-1,3-oxazol-2-yl)-N-(3-pyridinyl)benzamide] showed a melting point of 195 to 197 °C.

As to `Cc1ccc(S(=O)(=O)Cc2nc(-c3ccc(C(=O)NCc4ccccn4)cc3)oc2C)cc1` [Example 4, 4-(5-Methyl-4-{[(4-methylphenyl)sulfonyl]methyl}-1,3-oxazol-2-yl)-N-(2-pyridinylmethyl)benzamide], the melting point is 154 to 155 °C. Still for that read-out and setting: under `Cc1ccc(S(=O)(=O)Cc2nc(-c3ccc(C(=O)NCc4ccncc4)cc3)oc2C)cc1` [Example 6, 4-(5-Methyl-4-{[(4-methylphenyl)sulfonyl]methyl}-1,3-oxazol-2-yl)-N-(4-pyridinylmethyl)benzamide] stands 169 to 172 °C; under `Cc1ccc(S(=O)(=O)Cc2nc(-c3ccc(C(=O)N(C)Cc4cccnc4)cc3)oc2C)cc1` [Example 7, N-Methyl-4-(5-methyl-4-{[(4-methylphenyl)sulfonyl]methyl}-1,3-oxazol-2-yl)-N-(3-pyridinylmethyl)benzamide], 77 to 80 °C.

Consider `Cc1ccc(S(=O)(=O)Cc2nc(-c3ccc(C(=O)NCCc4cccnc4)cc3)oc2C)cc1` [Example 8, 4-(5-Methyl-4-{[(4-methylphenyl)sulfonyl]methyl}-1,3-oxazol-2-yl)-N-[2-(3-pyridinyl)ethyl]benzamide], for which the melting point is 207 to 208 °C.

The compound `Cc1ccc(S(=O)(=O)Cc2nc(-c3ccc(C(=O)NCc4cnccn4)cc3)oc2C)cc1` [Example 9, 4-(5-Methyl-4-{[(4-methylphenyl)sulfonyl]methyl}-1,3-oxazol-2-yl)-N-(2-pyrazinylmethyl)benzamide] showed a melting point of 204 to 206 °C. Same read-out and setting: the figure for `Cc1ccc(S(=O)(=O)Cc2nc(-c3ccc(C(=O)NCc4nccn4C)cc3)oc2C)cc1` [Example 10, N-[(1-Methyl-1H-imidazol-2-yl)methyl]-4-(5-methyl-4-{[(4-methylphenyl)sulfonyl]methyl}-1,3-oxazol-2-yl)benzamide] is 190 to 192 °C; for `Cc1ccc(S(=O)(=O)Cc2nc(-c3ccc(C(=O)NCc4cncn4C)cc3)oc2C)cc1` [Example 11, N-[(1-Methyl-1H-imidazol-5-yl)methyl]-4-(5-methyl-4-{[(4-methylphenyl)sulfonyl]methyl}-1,3-oxazol-2-yl)benzamide] it is 240 to 242 °C; for `Cc1oc(-c2ccc(C(=O)NCc3cccnc3)cc2)nc1CS(=O)(=O)c1ccccc1` [Example 12, 4-{5-Methyl-4-[(phenylsulfonyl)methyl]-1,3-oxazol-2-yl}-N-(3-pyridinylmethyl)benzamide] it is 196 to 198 °C. On the same count and under the same terms, the figure for `Cc1oc(-c2ccc(C(=O)NCc3cccnc3)cc2)nc1CS(=O)(=O)c1ccc(Cl)cc1` [Example 13, 4-(4-{[(4-Chlorophenyl)sulfonyl]methyl}-5-methyl-1,3-oxazol-2-yl)-N-(3-pyridinylmethyl)benzamide] is 220 to 222 °C; for `Cc1oc(-c2ccc(C(=O)NCc3cccnc3)cc2)nc1CS(=O)(=O)c1ccc(C(C)(C)C)cc1` [Example 14, 4-(4-{[(4-tert-Butylphenyl)sulfonyl]methyl}-5-methyl-1,3-oxazol-2-yl)-N-(3-pyridinylmethyl)benzamide] it is 177 to 180 °C; for `Cc1cc(C)cc(S(=O)(=O)Cc2nc(-c3ccc(C(=O)NCc4cccnc4)cc3)oc2C)c1` [Example 15, 4-(4-{[(3,5-Dimethylphenyl)sulfonyl]methyl}-5-methyl-1,3-oxazol-2-yl)-N-(3-pyridinylmethyl)benzamide] it is 188 to 190 °C. Still for that read-out and setting: under `Cc1oc(-c2ccc(C(=O)NCc3cccnc3)cc2)nc1CS(=O)(=O)c1ccc(Br)cc1` [Example 16, 4-(4-{[(4-Bromophenyl)sulfonyl]methyl}-5-methyl-1,3-oxazol-2-yl)-N-(3-pyridinylmethyl)benzamide] stands 224 to 227 °C. Consider `Cc1cccc(S(=O)(=O)Cc2nc(-c3ccc(C(=O)NCc4cccnc4)cc3)oc2C)c1` [Example 17, 4-(5-Methyl-4-{[(3-methylphenyl)sulfonyl]methyl}-1,3-oxazol-2-yl)-N-(3-pyridinylmethyl)benzamide], for which the melting point was 179 to 181 °C. On to `COc1ccc(S(=O)(=O)Cc2nc(-c3ccc(C(=O)NCc4cccnc4)cc3)oc2C)cc1` [Example 18, 4-(4-{[(4-Methoxyphenyl)sulfonyl]methyl}-5-methyl-1,3-oxazol-2-yl)-N-(3-pyridinylmethyl)benzamide], for which the melting point was 189 to 191 °C. Still for that read-out and setting: the figure for `COc1cccc(S(=O)(=O)Cc2nc(-c3ccc(C(=O)NCc4cccnc4)cc3)oc2C)c1` [Example 19, 4-(5-Methyl-4-{[(3-methoxyphenyl)sulfonyl]methyl}-1,3-oxazol-2-yl)-N-(3-pyridinylmethyl)benzamide] is 143 to 145 °C; for `COc1ccc(S(=O)(=O)Cc2nc(-c3ccc(C(=O)NCc4cccnc4)cc3)oc2C)cc1OC` [Example 20, 4-(4-{[(3,4-Dimethoxyphenyl)sulfonyl]methyl}-5-methyl-1,3-oxazol-2-yl)-N-(3-pyridinylmethyl)benzamide] it is 104 to 108 °C; for `Cc1oc(-c2ccc(C(=O)NCc3cccnc3)cc2)nc1CS(=O)(=O)c1ccc(F)cc1` [Example 22, 4-(4-{[(4-Fluorophenyl)sulfonyl]methyl}-5-methyl-1,3-oxazol-2-yl)-N-(3-pyridinylmethyl)benzamide] it is 218 to 220 °C. Regarding `Cc1oc(-c2ccc(C(=O)NCc3cccnc3)cc2)nc1CS(=O)(=O)c1ccc(N2CCN(C)CC2)cc1` [Example 23, 4-[5-Methyl-4-({[4-(4-methyl-1-piperazinyl)phenyl]sulfonyl}methyl)-1,3-oxazol-2-yl]-N-(3-pyridinylmethyl)benzamide], the melting point fell in the range of 210 to 215 °C. The same measure, in the same setting: the figure for `Cc1oc(-c2ccc(C(=O)NCc3cccnc3)cc2)nc1CS(=O)(=O)c1ccc(N2CCOCC2)cc1` [Example 24, 4-[5-Methyl-4-({[4-(4-morpholinyl)phenyl]sulfonyl}methyl)-1,3-oxazol-2-yl]-N-(3-pyridinylmethyl)benzamide] is 208 to 210 °C; for `Cc1ccc(S(=O)(=O)Cc2csc(-c3ccc(C(=O)NCc4cccnc4)cc3)n2)cc1` [Example 25, 4-(4-{[(4-Methylphenyl)sulfonyl]methyl}-1,3-thiazol-2-yl)-N-(3-pyridinylmethyl)benzamide] it is 178 to 181 °C; for `Cc1oc(-c2ccc(C(=O)NCc3ccccc3)cc2)nc1CS(=O)(=O)c1ccc(Br)cc1` [Example 27, N-Benzyl-4-(4-{[(4-bromophenyl)sulfonyl]methyl}-5-methyl-1,3-oxazol-2-yl)benzamide] it is 234 to 237 °C. As to `O=C(Nc1cccnc1)c1ccc(CNS(=O)(=O)c2cccnc2)cc1` [II-1, N-(3-Pyridinyl)-4-{[(3-pyridylsulfonyl)amino]methyl}benzamide], the Ratio entry in data set [1] is “a (a ratio of RCC4/RCC-VHL+ranging from 1 to ≦10)”.

The compound `O=C(Nc1cccnc1)c1ccc(CNS(=O)(=O)c2ccc(Cl)nc2)cc1` [II-2, 4-({[(6-Chloro-3-pyridinyl)sulfonyl]amino}methyl)-N-(3-pyridinyl)benzamide] gave a melting point of 226 to 228 °C. In the data set with RCC4, the IC50 is > 20 nM.

For the compound `O=C(Nc1cccnc1)c1ccc(CNS(=O)(=O)c2ccc(Oc3ccccc3)nc2)cc1` [II-3, 4-({[(6-Phenoxy-3-pyridinyl)sulfonyl]amino}methyl)-N-(3-pyridinyl)benzamide], the Ratio result in data set [1] is “a (a ratio of RCC4/RCC-VHL+ranging from 1 to ≦10)”. Still for that read-out and setting: under `O=C(Nc1cccnc1)c1ccc(CNS(=O)(=O)c2cccs2)cc1` [II-4, N-(3-Pyridinyl)-4-{[(2-thienylsulfonyl)amino]methyl}benzamide] stands “a (a ratio of RCC4/RCC-VHL+ranging from 1 to ≦10)”; under `O=C(Nc1cccnc1)c1ccc(CNS(=O)(=O)c2ccsc2)cc1` [II-5, N-(3-Pyridinyl)-4-{[(3-thienylsulfonyl)amino]methyl}benzamide], “a (a ratio of RCC4/RCC-VHL+ranging from 1 to ≦10)”.
